Data taken from patent US12195427B2, “MASP-2 inhibitors and methods of use” (priority 2018, dated 2025).

Biological target: MASP-2 CCP2-SP (Homo sapiens (Human), UniProt O00187)
Experiment: MASP-2 co-crystallization, X-ray crystallography and structure analysis (H-bonds, van der Waals contacts);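 for Ligand-pharmacophore element distance, pharmacophore element C2: distance from averaged pharmacophore element to bound ligand; missing value means element absent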;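 for Ligand-pharmacophore element distance, pharmacophore element C3: distance from averaged pharmacophore element to bound ligand; missing value means element absent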;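 for Ligand-pharmacophore element distance, pharmacophore element C4: distance from averaged pharmacophore element to bound ligand; missing value means element absent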;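 for Ligand-pharmacophore element distance, pharmacophore element C5: distance from averaged pharmacophore element to bound ligand; missing value means element absent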
Parameters: van der Waals contact distance, MASP-2 HIS 483 atom CD2 / van der Waals contact distance, MASP-2 HIS 483 atom NE2 / van der Waals contact distance, SER 654 C to compound atom / van der Waals contact distance, SER 654 O to compound atom / van der Waals contact distance, TRP 655 C to compound atom / van der Waals contact distance, MASP-2 GLY 528 atom CA / van der Waals contact distance TRP 655 atom CZ3 / van der Waals contact distance TRP 655 atom N / van der Waals contact distance TRP 655 atom CE3 / van der Waals contact distance GLY 656 atom C / van der Waals contact distance GLY 656 atom CA / van der Waals contact distance GLY 656 atom O / van der Waals contact distance, MASP-2 TYR 607 atom CD1 / van der Waals contact distance, MASP-2 PRO 606 atom O / d(C3,CA1) / d(CA1,N1)2 / d(H4,O1) / d(H4,O2) / d(O1,O2) / d(CA1,O2) / d(CA6,O1) / d(CA6,O2) / d(CA1,C5) / d(O2,H3) / d(N2,C2) / d(CA5,N2) / d(N2,C4) / d(N2,C6) / d(N2,CA3) / d(N2,O3) / d(O4,H2): unit not given beside the values
Conditions: for Ligand-pharmacophore element distance, pharmacophore element C2 / Ligand-pharmacophore element distance, pharmacophore element C3 / Ligand-pharmacophore element distance, pharmacophore element C4 / Ligand-pharmacophore element distance, pharmacophore element C5 / Ligand-pharmacophore element distance, pharmacophore element C6 / Ligand-pharmacophore element distance, pharmacophore element C7 / Ligand-pharmacophore element distance, pharmacophore element CA1 / Ligand-pharmacophore element distance, pharmacophore element CA2 / Ligand-pharmacophore element distance, pharmacophore element CA3 / Ligand-pharmacophore element distance, pharmacophore element CA4 / Ligand-pharmacophore element distance, pharmacophore element CA5 / Ligand-pharmacophore element distance, pharmacophore element CA6: Table A4-1; for d(N2,CA2) / d(O2,H3) / d(O2,N2) / d(N2,C2): Table A5-2 pharmacophore distance, S3/S4 region; for a(O1, O2, H3) / a(O1, O2, N2) / a(O2, N2, CA2) / a(O2, N2, C2): Table A6-2 pharmacophore angle; for Pharmacophore torsion angle a(O1, O2, N2, CA2): Table A7-2; for Pharmacophore protein distance to MET_658 (first MET_658 column) / Pharmacophore protein distance to MET_658 (second MET_658 column) / Pharmacophore protein distance to GLY_528 / Pharmacophore protein distance to PHE_529 / Pharmacophore protein distance to PRO_608 / Pharmacophore protein distance to SER_611 / Pharmacophore protein distance to TRP_655: Table A8-6, nearest protein atom in cell to the left; for Pharmacophore protein distance to MET_658 (first MET_658 column): 6th residue column; for Pharmacophore protein distance to MET_658 (second MET_658 column): 9th residue column; for Pharmacophore protein distance to TRP_655: pharmacophore elements C6, CA3, O3, H1; for Ligand-pharmacophore element distance, pharmacophore element H1 / Ligand-pharmacophore element distance, pharmacophore element H2 / Ligand-pharmacophore element distance, pharmacophore element H3 / Ligand-pharmacophore element distance, pharmacophore element H4 / Ligand-pharmacophore element distance, pharmacophore element N1 / Ligand-pharmacophore element distance, pharmacophore element N2 / Ligand-pharmacophore element distance, pharmacophore element O1 / Ligand-pharmacophore element distance, pharmacophore element O2 / Ligand-pharmacophore element distance, pharmacophore element O3 / Ligand-pharmacophore element distance, pharmacophore element O4: Table A4-2; for A(N1, CA1, O1) a): all compounds with protonatable center N1 except Methyl-amino-pyridine
Description: This example illustrates the preparation of recombinant MASP-2 protein, based on UniProt O00187, human mannan-binding lectin serine protease 2. Expression constructs for human MASP-2 CCP2-SP and CCP2-SP-6HIS were generated for recombinant expression in E. coli cells.
Typically, crystallization hits were obtained by screening against […] 96-well crystallization reagent kits (GRAS6, GRAS2, Hampton Research; MORPHEUS, Molecular Dimensions; Wizard 1&2 Cryo, Rigaku Reagents) and crystal growth was inspected by optical microscopy. Crystals were used directly or further optimized for X-ray diffraction. Crystals were captured with cryogenic loops and dipped into liquid nitrogen directly or cryoprotected with a 20% glycerol in crystallization formulation before flash-cooling in liquid nitrogen.
Thereafter crystals are transferred once or twice for soaking within the crystallization solution containing the MASP-2 inhibitor.
Crystals were diffracted with synchrotron X-rays of […] and X-ray diffraction datasets were collected at beamlines SSRL BL9-2, BL14-1, BL12-2 as well as ALS sector 5 using Dectris Pilatus and Eiger detectors. Structures were determined by molecular replacement using portions of the structure 1Q3X as search models and partially refined with Buster 2.10.2 or Refmac 5.8. […] When multiple ligand poses were observed, for instance arising from multiple molecules in the asymmetric unit or refined dual poses within the same molecule, only one pose was selected and analyzed.
LigPlot+ calls these ‘nonbonded contacts’ or ‘hydrophobic contacts’. Despite the name, there are atom pairings that include possible H-bonds. Thus, in some instances, the Table A2 also contains H-bond interactions.

[1] = Table A5-1 pharmacophore: distance between elements, S2/S1 region
[2] = Table A7-1, between pharmacophore elements of the bound compound
[3] = between pharmacophore elements of the bound compound

Chain of MASP-2 CCP2-SP (O00187 445-686): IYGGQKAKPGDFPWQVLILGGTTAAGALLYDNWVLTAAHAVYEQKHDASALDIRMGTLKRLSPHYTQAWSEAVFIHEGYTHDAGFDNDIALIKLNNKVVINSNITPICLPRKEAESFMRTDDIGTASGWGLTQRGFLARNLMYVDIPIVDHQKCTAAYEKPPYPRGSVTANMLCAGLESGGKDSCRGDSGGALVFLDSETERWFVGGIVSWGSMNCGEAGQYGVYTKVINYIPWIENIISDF
Chain of MASP-2 CCP2-SP (O00187 364-432 partner): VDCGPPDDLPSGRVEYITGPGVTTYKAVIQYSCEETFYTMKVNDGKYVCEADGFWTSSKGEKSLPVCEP

C[C@H](NC(=O)[C@H](N)CCc1ccccc1)C(=O)NCc1ccc(N)nc1.Cl.Cl [1007_2]
Ligand-pharmacophore element distance, pharmacophore element C2: 0
Ligand-pharmacophore element distance, pharmacophore element C3: 0
Ligand-pharmacophore element distance, pharmacophore element C4: 0
Ligand-pharmacophore element distance, pharmacophore element C5: 0
Ligand-pharmacophore element distance, pharmacophore element C6: 0
Ligand-pharmacophore element distance, pharmacophore element C7: 0
Ligand-pharmacophore element distance, pharmacophore element CA1: 0.59
Ligand-pharmacophore element distance, pharmacophore element CA2: 0.86
Ligand-pharmacophore element distance, pharmacophore element CA3: 0
Ligand-pharmacophore element distance, pharmacophore element CA4: 0
Ligand-pharmacophore element distance, pharmacophore element CA5: 0
Ligand-pharmacophore element distance, pharmacophore element CA6: 0
d(CA1,N1)2 [1]: 1.38
d(CA1,O1) [1]: 4.52
d(CA1,O2) [1]: 4.00
d(H4,O1) [1]: 3.69
d(H4,O2) [1]: 2.76
d(O1,O2) [1]: 3.63
d(N2,CA2): 6.11
d(O2,H3): 4.67
d(O2,N2): 2.86
a(CA1, O1, O2) (Table A6-1 pharmacophore angle): 107.55
a(O1, O2, H4) (Table A6-1 pharmacophore angle): 113.36
a(N1, CA1, O1) b) (Table A6-1 pharmacophore angle, Methyl-amino-pyridine compounds): 174.22
a(O1, O2, H3): 145.74
a(O1, O2, N2): 133.10
a(O2, N2, CA2): 153.46
Pharmacophore torsion angle a(H4, O1, O2, H3) [2]: 47.32
Pharmacophore torsion angle a(H4, O1, O2, N2) [2]: 126.25
Pharmacophore torsion angle a(N1, CA1, O1, H4) [2]: 48.80
Pharmacophore torsion angle a(O1, H4, O2, CA1) [2]: −94.30
Pharmacophore torsion angle a(O1, O2, N2, CA2) [3]: 131.44
Pharmacophore protein distance to MET_658 (first MET_658 column): 2.59
Pharmacophore protein distance to MET_658 (second MET_658 column): 3.37
Pharmacophore protein distance to GLY_528: 3.72
Pharmacophore protein distance to PHE_529: 3.20
Pharmacophore protein distance to PRO_608: 3.12
Pharmacophore protein distance to SER_611: 2.21
Pharmacophore protein distance to TRP_655: 3.60

C[C@H](NC(=O)[C@H](N)CCCc1ccccc1)C(=O)NCc1ccc(C(=N)N)cc1.Cl.Cl [1042_1]
Ligand-pharmacophore element distance, pharmacophore element C2: 1.81
Ligand-pharmacophore element distance, pharmacophore element C3: 0
Ligand-pharmacophore element distance, pharmacophore element C4: 0
Ligand-pharmacophore element distance, pharmacophore element C5: 0
Ligand-pharmacophore element distance, pharmacophore element C6: 0
Ligand-pharmacophore element distance, pharmacophore element C7: 0
Ligand-pharmacophore element distance, pharmacophore element CA1: 0.87
Ligand-pharmacophore element distance, pharmacophore element CA2: 0.48
Ligand-pharmacophore element distance, pharmacophore element CA3: 0
Ligand-pharmacophore element distance, pharmacophore element CA4: 0
Ligand-pharmacophore element distance, pharmacophore element CA5: 0
Ligand-pharmacophore element distance, pharmacophore element CA6: 0
Ligand-pharmacophore element distance, pharmacophore element H1: 0
Ligand-pharmacophore element distance, pharmacophore element H2: 0
Ligand-pharmacophore element distance, pharmacophore element H3: 5.4
Ligand-pharmacophore element distance, pharmacophore element H4: 3.08
Ligand-pharmacophore element distance, pharmacophore element N1: 1.3
Ligand-pharmacophore element distance, pharmacophore element N2: 0.56
Ligand-pharmacophore element distance, pharmacophore element O1: 2.71
Ligand-pharmacophore element distance, pharmacophore element O2: 0.67
Ligand-pharmacophore element distance, pharmacophore element O3: 0
Ligand-pharmacophore element distance, pharmacophore element O4: 0
d(CA1,N1) [1]: 3.58
d(CA1,O1) [1]: 3.98
d(CA1,O2) [1]: 4.13
d(H4,O1) [1]: 3.35
d(H4,O2) [1]: 3.67
d(O1,O2) [1]: 3.40
d(N2,C2): 3.42
d(N2,CA2): 6.20
d(O2,H3): 5.43
d(O2,N2): 2.64
a(CA1, O1, O2) (Table A6-1 pharmacophore angle): 117.21
a(O1, O2, H4) (Table A6-1 pharmacophore angle): 122.15
A(N1, CA1, O1) a) (Table A6-1 pharmacophore angle): 158.11
a(O1, O2, H3): 149.96
a(O1, O2, N2): 170.80
a(O2, N2, C2): 140.47
a(O2, N2, CA2): 155.50
Pharmacophore torsion angle a(H4, O1, O2, H3) [2]: −19.99
Pharmacophore torsion angle a(H4, O1, O2, N2) [2]: 68.67
Pharmacophore torsion angle a(N1, CA1, O2, H4) [2]: 9.10
Pharmacophore torsion angle a(O1, H4, O2, CA1) [2]: −160.50
Pharmacophore torsion angle a(O1, O2, N2, C2) [2]: 115.48
Pharmacophore torsion angle a(O1, O2, N2, CA2) [3]: 136.01
Pharmacophore protein distance to MET_658 (first MET_658 column): 2.06
Pharmacophore protein distance to MET_658 (second MET_658 column): 3.40
Pharmacophore protein distance to GLY_528: 4.67
Pharmacophore protein distance to PHE_529: 3.84
Pharmacophore protein distance to PRO_608: 3.46
Pharmacophore protein distance to SER_611: 2.14
Pharmacophore protein distance to TRP_655: 3.28

C[C@H](NC(=O)[C@H](N)CCCc1ccccc1)C(=O)NCc1ccc(C(=N)N)cc1.Cl.Cl [1042_2]
Ligand-pharmacophore element distance, pharmacophore element C2: 1.33
Ligand-pharmacophore element distance, pharmacophore element C3: 0
Ligand-pharmacophore element distance, pharmacophore element C4: 0
Ligand-pharmacophore element distance, pharmacophore element C5: 0
Ligand-pharmacophore element distance, pharmacophore element C6: 0
Ligand-pharmacophore element distance, pharmacophore element C7: 0
Ligand-pharmacophore element distance, pharmacophore element CA1: 0.5
Ligand-pharmacophore element distance, pharmacophore element CA2: 0.72
Ligand-pharmacophore element distance, pharmacophore element CA3: 0
Ligand-pharmacophore element distance, pharmacophore element CA4: 0
Ligand-pharmacophore element distance, pharmacophore element CA5: 0
Ligand-pharmacophore element distance, pharmacophore element CA6: 0
Ligand-pharmacophore element distance, pharmacophore element H1: 0
Ligand-pharmacophore element distance, pharmacophore element H2: 0
Ligand-pharmacophore element distance, pharmacophore element H3: 5.3
Ligand-pharmacophore element distance, pharmacophore element H4: 3.52
Ligand-pharmacophore element distance, pharmacophore element N1: 1.61
Ligand-pharmacophore element distance, pharmacophore element N2: 1.72
Ligand-pharmacophore element distance, pharmacophore element O1: 3.1
Ligand-pharmacophore element distance, pharmacophore element O2: 0.75
Ligand-pharmacophore element distance, pharmacophore element O3: 0
Ligand-pharmacophore element distance, pharmacophore element O4: 0
d(CA1,N1) [1]: 3.61
d(CA1,O1) [1]: 4.47
d(CA1,O2) [1]: 4.74
d(H4,O1) [1]: 4.02
d(H4,O2) [1]: 4.01
d(O1,O2) [1]: 3.46
d(N2,C2): 4.38
d(N2,CA2): 7.44
d(O2,H3): 5.89
d(O2,N2): 2.86
a(CA1, O1, O2) (Table A6-1 pharmacophore angle): 116.12
a(O1, O2, H4) (Table A6-1 pharmacophore angle): 128.91
A(N1, CA1, O1) a) (Table A6-1 pharmacophore angle): 164.17
a(O1, O2, H3): 152.56
a(O1, O2, N2): 148.96
a(O2, N2, C2): 139.99
a(O2, N2, CA2): 158.67
Pharmacophore torsion angle a(H4, O1, O2, H3) [2]: −9.33
Pharmacophore torsion angle a(H4, O1, O2, N2) [2]: 44.33
Pharmacophore torsion angle a(N1, CA1, O2, H4) [2]: 69.40
Pharmacophore torsion angle a(O1, H4, O2, CA1) [2]: 68.80
Pharmacophore torsion angle a(O1, O2, N2, C2) [2]: 151.54
Pharmacophore torsion angle a(O1, O2, N2, CA2) [3]: 159.77
Pharmacophore protein distance to MET_658 (first MET_658 column): 1.07
Pharmacophore protein distance to MET_658 (second MET_658 column): 4.17
Pharmacophore protein distance to GLY_528: 4.01
Pharmacophore protein distance to PHE_529: 3.09
Pharmacophore protein distance to PRO_608: 3.74
Pharmacophore protein distance to SER_611: 2.54
Pharmacophore protein distance to TRP_655: 3.27
